Data reported in PubChem BioAssay (NCI).
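A five-concentration, 48-hour dose response in 96-well plates underlies each endpoint, interpolated linearly between surrounding concentrations. At the GI50, growth is halved. TGI: total growth inhibition.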

Assays:
Assay in all cases: growth of human tumour cells (NCI), 48 h
[1] = test system: 786-0 renal
[2] = test system: A498 renal
[3] = test system: A549 NSCLC
[4] = test system: ACHN renal
[5] = test system: BT-549 breast
[6] = test system: CAKI-1 renal
[7] = test system: CCRF-CEM leukemia
[8] = test system: COLO 205 colon
[9] = test system: DU-145 prostate
[10] = test system: EKVX NSCLC
[11] = test system: HCC-2998 colon
[12] = test system: HCT-116 colon
[13] = test system: HCT-15 colon
[14] = test system: HL-60(TB) leukemia
[15] = test system: HOP-62 NSCLC
[16] = test system: HS 578T breast
[17] = test system: HT29 colon
[18] = test system: IGROV1 ovarian
[19] = test system: K-562 leukemia
[20] = test system: KM12 colon
[21] = test system: LOX IMVI melanoma
[22] = test system: M14 melanoma
[23] = test system: MALME-3M melanoma
[24] = test system: MCF7 breast
[25] = test system: MDA-MB-231 breast
[26] = test system: MDA-MB-435
[27] = test system: MOLT-4 leukemia
[28] = test system: NCI-H226 lung
[29] = test system: NCI-H23 lung
[30] = test system: NCI-H460 lung
[31] = test system: NCI-H522 lung
[32] = test system: NCI/ADR-RES ovarian
[33] = test system: OVCAR-3 ovarian
[34] = test system: OVCAR-4 ovarian
[35] = test system: OVCAR-5 ovarian
[36] = test system: OVCAR-8 ovarian
[37] = test system: PC-3 prostate
[38] = test system: RPMI-8226 leukemia
[39] = test system: RXF 393 renal
[40] = test system: SF-268 CNS
[41] = test system: SF-295 CNS
[42] = test system: SF-539 CNS
[43] = test system: SK-MEL-2 melanoma
[44] = test system: SK-MEL-28 melanoma
[45] = test system: SK-MEL-5 melanoma
[46] = test system: SK-OV-3 ovarian
[47] = test system: SN12C renal
[48] = test system: SNB-19 CNS
[49] = test system: SNB-75 CNS
[50] = test system: SW-620 colon
[51] = test system: T-47D breast
[52] = test system: TK-10 renal
[53] = test system: U251 CNS
[54] = test system: UACC-257 melanoma
[55] = test system: UACC-62 melanoma
[56] = test system: UO-31 renal

SMILES: CN(C)CCOc1ccc(-c2cc(-c3ccc4c(c3)CC/C4=N\O)c(-c3ccncc3)o2)cc1
- GI50 [1]: 3.55 µM
- TGI [1]: 7.75 µM
- GI50 [2]: 4.22 µM
- TGI [2]: 8.17 µM
- GI50 [3]: 3.57 µM
- TGI [3]: 7.06 µM
- GI50 [4]: 3.62 µM
- TGI [4]: 6.98 µM
- GI50 [5]: 4.35 µM
- TGI [5]: 8.03 µM
- GI50 [6]: 4.19 µM
- TGI [6]: 8.71 µM
- GI50 [7]: 3.76 µM
- TGI [7]: 13.3 µM
- GI50 [8]: 0.112 µM
- TGI [8]: 4.35 µM
- GI50 [9]: 3.78 µM
- TGI [9]: 7.38 µM
- GI50 [10]: 3.93 µM
- TGI [10]: 8.07 µM
- GI50 [11]: 5.5 µM
- TGI [11]: 9.5 µM
- GI50 [12]: 1.29 µM
- TGI [12]: 4.5 µM
- GI50 [13]: 3.35 µM
- TGI [13]: 7.09 µM
- GI50 [14]: 5.46 µM
- TGI [14]: 10.8 µM
- GI50 [15]: 3.84 µM
- TGI [15]: 7.92 µM
- GI50 [16]: 4.59 µM
- TGI [16]: 12.4 µM
- GI50 [17]: 0.451 µM
- TGI [17]: 4.39 µM
- GI50 [18]: 4.7 µM
- TGI [18]: 10.1 µM
- GI50 [19]: 0.668 µM
- TGI [19]: 3.27 µM
- GI50 [20]: 3.57 µM
- TGI [20]: 7.28 µM
- GI50 [21]: 1.66 µM
- TGI [21]: 5.63 µM
- GI50 [22]: 0.0653 µM
- TGI [22]: 3.39 µM
- GI50 [23]: 0.0245 µM
- TGI [23]: 0.179 µM
- GI50 [24]: 5.02 µM
- TGI [24]: 10.1 µM
- GI50 [25]: 3.34 µM
- TGI [25]: 7.19 µM
- GI50 [26]: 0.156 µM
- TGI [26]: 4.39 µM
- GI50 [27]: 3.86 µM
- TGI [27]: 10.3 µM
- GI50 [28]: 4.78 µM
- TGI [28]: 9.7 µM
- GI50 [29]: 3.21 µM
- TGI [29]: 7.12 µM
- GI50 [30]: 1.1 µM
- TGI [30]: 3.95 µM
- GI50 [31]: 3.73 µM
- TGI [31]: 8.02 µM
- GI50 [32]: 5.05 µM
- TGI [32]: 11 µM
- GI50 [33]: 4.38 µM
- TGI [33]: 8.16 µM
- GI50 [34]: 5.16 µM
- TGI [34]: 11.2 µM
- GI50 [35]: 3.32 µM
- TGI [35]: 6.79 µM
- GI50 [36]: 3.97 µM
- TGI [36]: 9 µM
- GI50 [37]: 4.16 µM
- TGI [37]: 8.22 µM
- GI50 [38]: 4.28 µM
- TGI [38]: 10.7 µM
- GI50 [39]: 3.07 µM
- TGI [39]: 6.78 µM
- GI50 [40]: 4.72 µM
- TGI [40]: 9.94 µM
- GI50 [41]: 3.8 µM
- TGI [41]: 7.68 µM
- GI50 [42]: 3.64 µM
- TGI [42]: 7.41 µM
- GI50 [43]: 0.281 µM
- TGI [43]: 3.54 µM
- GI50 [44]: 0.111 µM
- TGI [44]: 3.71 µM
- GI50 [45]: 2.2 µM
- TGI [45]: 5.86 µM
- GI50 [46]: 4.08 µM
- TGI [46]: 7.51 µM
- GI50 [47]: 3.96 µM
- TGI [47]: 7.73 µM
- GI50 [48]: 4.68 µM
- TGI [48]: 8.6 µM
- GI50 [49]: 1.27 µM
- TGI [49]: 6 µM
- GI50 [50]: 1.92 µM
- TGI [50]: 5.45 µM
- GI50 [51]: 4.66 µM
- TGI [51]: 9.62 µM
- GI50 [52]: 5.62 µM
- TGI [52]: 9.79 µM
- GI50 [53]: 2.41 µM
- TGI [53]: 5.55 µM
- GI50 [54]: 0.0945 µM
- TGI [54]: 1.87 µM
- GI50 [55]: 0.0906 µM
- TGI [55]: 3.79 µM
- GI50 [56]: 5.21 µM
- TGI [56]: 9.47 µM
